Assay results taken from publication PMC2713788 (Experimental eye research, 2009).
No end group written: not given here.

What was measured:
in vitro [1] = type: in vitro ADME; conditions: human, cells or culture medium, bradykinin remaining in media
in vitro [2] = type: in vitro ADME; conditions: human, cells or culture medium, bradykinin present in media

## RPPGFSPFR [bradykinin]
In vitro [1]
  remaining at 0.5 h, 500 pg/ml: 51 ± 5%
  remaining at 1 h, 500 pg/ml: 15 ± 3%
  remaining at 1.5 h, 500 pg/ml: 9 ± 3%
In vitro [2]
  remaining at 0.5 h, 500 pg/ml: 73 ± 3%
  remaining at 1 h, 500 pg/ml: 52 ± 3%
